Measured values: publication PMC9247258, “Synthesis and Biological Activity Evaluation of 2-Cyanopyrrole Derivatives as Potential Tyrosinase Inhibitors” (Frontiers in Chemistry, 2022)

Experiments:
mushroom tyrosinase [1] = target: T1, mushroom tyrosinase (Agaricus bisporus, UniProt C7FF04); assay: Mushroom tyrosinase inhibitory assay (L-DOPA as substrate); format: biochemical; design: purchased Sigma (St. Louis, MO, United States); details: for IC50: mushroom tyrosinase, L-DOPA substrate, absorbance 475 nm
Experimental: The mushroom tyrosinase activity assays of synthetic compounds were carried out according to the previously reported modification ([Qin et al., 2015]). L-DOPA was used as the substrate. Briefly, 800 μl of phosphate buffer (50 mM, pH 6.8), 50 μl of mushroom tyrosinase (666.67 U/ml, dissolved in PBS), and 50 μl of inhibitor (dissolved in DMSO) were placed in the plastic centrifuge tube. Then, 100 μl of L-DOPA (5 mM, dissolved in PBS) was added. Subsequently, its change in absorbance at 475 nm was measured in a time-dependent manner using a Beckman UV-650 spectrophotometer. The percentage inhibition was calculated by using [(OD0 - OD1)/OD0] × 100%, where OD0 was the absorbance without inhibitor, and OD1 was the absorbance with the inhibitor. The IC50 value of the potential compound was calculated from dose-response curves of percentage inhibition. Kojic acid was used as a standard control for comparison. All experiments were performed in duplicate.
Target sequence in this assay (C7FF04 1-392 limits assumed): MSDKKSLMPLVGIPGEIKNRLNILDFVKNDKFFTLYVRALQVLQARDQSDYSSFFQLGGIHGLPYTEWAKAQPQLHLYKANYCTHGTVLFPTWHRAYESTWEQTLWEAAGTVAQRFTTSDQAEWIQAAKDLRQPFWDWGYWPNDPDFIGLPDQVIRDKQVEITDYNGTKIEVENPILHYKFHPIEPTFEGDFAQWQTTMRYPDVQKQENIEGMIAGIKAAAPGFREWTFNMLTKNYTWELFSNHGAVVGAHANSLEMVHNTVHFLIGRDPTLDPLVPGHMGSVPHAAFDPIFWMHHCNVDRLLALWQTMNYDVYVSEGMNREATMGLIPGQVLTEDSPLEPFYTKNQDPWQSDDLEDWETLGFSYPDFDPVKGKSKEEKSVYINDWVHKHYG

mushroom tyrosinase [2] = target: T1, mushroom tyrosinase; assay: Inhibition mechanism and kinetic analysis (v vs [E] plots, Lineweaver-Burk plot); format: biochemical
Experimental: Experiments were performed to analyze the inhibitory mechanism by the following method. For the text, the mushroom tyrosinase at a final concentration of 16.67–100.00 U/ml and L-DOPA at a final concentration of 0.5 mM were chosen. Then, the mushroom tyrosinase activity was measured in the presence of the inhibitor.
The inhibition type of the inhibitor on mushroom tyrosinase was evaluated by the Lineweaver–Burk plot, and the inhibition constants were obtained from the second plots of the apparent 1/Vmax and Km/Vmax against the inhibitor concentration. In this assay, mushroom tyrosinase at a final concentration of 33.33 U/ml and L-DOPA at a final concentration of 0.25–2 mM were used. The equation for the Lineweaver–Burk plot can be written as follows: 1/v−Km/Vm(1+[I]/KI)+1/Vm(1+[I]/KIS) where v is the reaction velocity, Km is the Michaelis constant, Vm is the maximal velocity, [I] is the concentration of the inhibitor, [S] is the concentration of the substrate, KI is the constant for the inhibitor binding with the free enzyme, and KIS is the constant for the inhibitor binding with the enzyme-substrate complex. KI and KIS were obtained from the slope or the vertical intercept vs. the inhibitor concentration, respectively.
Target sequence in this assay (C7FF04 2-392): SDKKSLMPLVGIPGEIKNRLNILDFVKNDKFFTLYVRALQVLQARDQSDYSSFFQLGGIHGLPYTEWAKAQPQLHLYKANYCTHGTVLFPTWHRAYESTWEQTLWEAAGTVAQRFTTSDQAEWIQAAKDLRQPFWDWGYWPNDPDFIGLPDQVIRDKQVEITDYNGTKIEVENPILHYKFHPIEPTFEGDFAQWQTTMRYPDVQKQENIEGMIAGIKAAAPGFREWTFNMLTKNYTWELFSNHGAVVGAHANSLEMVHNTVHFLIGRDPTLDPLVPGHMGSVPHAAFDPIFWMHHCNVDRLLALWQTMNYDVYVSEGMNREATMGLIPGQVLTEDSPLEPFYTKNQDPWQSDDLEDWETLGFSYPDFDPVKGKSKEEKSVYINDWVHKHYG

B16 melanoma cells = assay: MTT assay, cell cytotoxicity; format: cell-based, mouse; details: 24 h treatment, under a concentration of 100 μM
Experimental: B16 mouse melanoma cells were cultured in Dulbecco’s modified Eagle’s medium (DMEM) containing 10% fetal bovine serum and 1% penicillin/streptomycin at 37°C in a 5% CO2 incubator. B16 cells (100 µl) were plated in a 96-well plate (5 × 10^3 cells/well) for 24 h and then treated with a 100 µl complete medium containing A12 or kojic acid for 24 h. MTT solution (0.5 mg/ml, final concentration) was added to each well, and plates were incubated at 37°C for another 3 h. The absorbance was measured at 490 nm using a multi-detection microplate reader.

[3] = system: tyrosinase in B16 melanoma cells; assay: Cellular tyrosinase activity; format: cell-based; details: Mus musculus, 48 h incubation
Experimental: B16 mouse melanoma cells were cultured in Dulbecco’s modified Eagle’s medium (DMEM) containing 10% fetal bovine serum and 1% penicillin/streptomycin at 37°C in a 5% CO2 incubator. The inhibitory activity of A12 on tyrosinase in B16 cells was evaluated. B16 cells (5 × 10^4 cells/well) were plated in 96-well plates and incubated for 24 h. A measure of 100 µl of complete medium including A12 or kojic acid was added for further incubation of 48 h. Then, cells were added to 50 µl Triton X-100 (1%) and allowed for freezing for 1 h at −80°C. After thawing at room temperature, 10 μl L-DOPA solutions (0.1%, w/v) were added and co-incubated for 1 h at 37°C. The absorbance at 405 nm was measured.

SMILES	IC50 (mushroom tyrosinase [1])	further results
COc1ccc(-c2ccn(C)c2C#N)cc1 [Compound A8]	89.2 µM	–
Cn1ccc(-c2ccccc2Br)c1C#N [Compound A4]	8.47 µM	–
Cn1ccc(-c2ccc(Br)cc2)c1C(N)=O [Compound B2, 3-(4-Bromophenyl)-1-methyl-1H-pyrrole-2-carboxamide]	> 200 µM	melting point: 172 to 174 °C
Cn1ccc(-c2cccc(Br)c2)c1C(N)=O [Compound B1, 3-(3-Bromophenyl)-1-methyl-1H-pyrrole-2-carboxamide]	> 200 µM	–
Cn1ccc(-c2cccc(Br)c2)c1C#N [Compound A5]	16.5 µM	–
Cn1ccc(-c2ccccc2F)c1CNC(=O)OC(C)(C)C [Compound B8, tert-Butyl ((3-(2-fluorophenyl)-1-methyl-1H-pyrrol-2-yl)methyl)carbamate]	> 200 µM	melting point: 81 to 84 °C
Cn1c(-c2ccccc2)cc(-c2ccc(Cl)cc2)c1C#N [Compound A15]	87.3 µM	–
Cn1ccc(-c2ccccc2)c1CNC(=O)OC(C)(C)C [Compound B6, tert-Butyl ((1-methyl-3-phenyl-1H-pyrrol-2-yl)methyl)carbamate]	> 200 µM	melting point: 87 to 90 °C
Cn1ccc(-c2cccc(F)c2)c1CNC(=O)OC(C)(C)C [Compound B4, tert-Butyl ((3-(3-fluorophenyl)-1-methyl-1H-pyrrol-2-yl)methyl)carbamate]	> 200 µM	melting point: 103 to 104 °C
C=Cc1ccccc1-c1ccn(C)c1C#N [Compound A12]	0.97 µM	inhibition type (mushroom tyrosinase [2]; Lineweaver-Burk double reciprocal plots, L-DOPA 0.25-2 mM, tyrosinase 33.33 U/ml): mixed-type; reversibility of tyrosinase inhibition (mushroom tyrosinase [2]; plots of initial velocity vs tyrosinase concentration, L-DOPA 0.5 mM): reversible; KIS, equilibrium constant for inhibitor binding with enzyme-substrate complex (mushroom tyrosinase [2]; second plot of apparent 1/Vmax vs inhibitor concentration): 1.00 µM; cell cytotoxicity on B16 melanoma cells (B16 melanoma cells): no cytotoxicity; inhibition at 100 µM [3]: 33.5%; times stronger than the reference inhibitor kojic acid (mushroom tyrosinase [1]; ratio of tyrosinase IC50 values, kojic acid vs compound): ~30 times
N#Cc1c(-c2ccc(Cl)cc2)cc2n1Cc1ccccc1C2 [Compound A17]	5.57 µM	–
Cn1ccc(-c2cccc(F)c2)c1C#N [Compound A3]	21.4 µM	–
Cn1ccc(-c2ccc(C(F)(F)F)cc2)c1CNC(=O)OC(C)(C)C [Compound B7, tert-Butyl ((1-methyl-3-(4-(trifluoromethyl)phenyl)-1H-pyrrol-2-yl)methyl)carbamate]	> 200 µM	melting point: 120 to 122 °C
Cn1ccc(-c2cccc(Cl)c2Cl)c1C#N [Compound A10]	4.83 µM	–
COc1ccccc1-c1ccn(C)c1C#N [Compound A7]	23.6 µM	–
Cn1ccc(-c2ccc(Br)cc2)c1C#N [Compound A6]	8.17 µM	–
O=c1cc(CO)occ1O [Kojic acid, reference compound]	–	cell cytotoxicity on B16 melanoma cells (B16 melanoma cells): no cytotoxicity; inhibition at 100 µM [3]: 39.8%
N#Cc1c(-c2ccc(Cl)cc2)ccn1Cc1ccccc1 [Compound A14]	80.5 µM	–
COc1ccc(Br)cc1-c1ccn(C)c1C#N [Compound A11]	2.11 µM	–
Cn1ccc(-c2ccc(Br)cc2)c1CNC(=O)OC(C)(C)C [Compound B3, tert-Butyl ((3-(4-bromophenyl)-1-methyl-1H-pyrrol-2-yl)methyl)carbamate]	> 200 µM	melting point: 109 to 113 °C
Cn1ccc(-c2ccccc2F)c1C#N [Compound A2]	8.72 µM	–
Cn1ccc(-c2ccc(C(F)(F)F)cc2)c1C#N [Compound A9]	12.4 µM	–
CCn1c(C)cc(-c2ccccc2)c1C#N [Compound A13]	4.46 µM	–
Cn1ccc(-c2ccccc2)c1C#N [Compound A1]	7.42 µM	–
Cn1ccc(-c2cccc(Br)c2)c1CNC(=O)OC(C)(C)C [Compound B5, tert-Butyl ((3-(3-bromophenyl)-1-methyl-1H-pyrrol-2-yl)methyl)carbamate]	> 200 µM	melting point: 124 to 127 °C
N#Cc1c(-c2ccc(Cl)cc2)cc2n1CCCC2 [Compound A16]	5.06 µM	–
